Assay results: patent US10092579B2, “Gold(I) complexes with anticancer properties and methods of use thereof” (KING FAHD UNIVERSITY OF PETROLEUM AND MINERALS, priority 2016, dated 2018)
Where two headings read alike, the source gives them in different places.

Tests used:
Assay type in all cases: cell-based, human
A549 cancer cell line = assay: MTT assay for anticancer activity, A549 cells; conditions: read-out: IC50 against A549
Procedure: (§1) A549, HeLa and HCT15 human cancer cells were seeded and maintained in triplicate at 4×10^3 cells/well in 100 μL DMEM (Dulbecco's Modified Eagle's Medium) containing 10% FBS (Fetal Bovine Serum) in 96-wells tissue culture plate and incubated for 72 h at 37° C. 5% CO2 in air and 90% relative humidity in CO2 incubator.
(§2) The resultant cultures were incubated for 24 h. The medium of wells was discarded. 100 μL DMEM containing MTT (3-(4,5-Dimethylthiazol-2-Yl)-2,5-Diphenyltetrazolium Bromide) (5 mg/mL) was added to the wells and incubated in CO2 incubator at 37° C. in dark for 4 h. After incubation, a purple colored formazan (artificial chromogenic dye, product of the reduction of water insoluble tetrazolium salts e.g., MMT by dehydrogenases and reductases) in the cells is produced and appeared as dark crystals in the bottom of the wells. The medium of culture was discarded from each well carefully to avoid disruption of monolayer. 100 μL of Dimethylsulphoxide (DMSO) was added in each well. The solution was thoroughly mixed in the wells to dissolve the formazan crystals which ultimately result into a purple solution. The absorbance of the 96-wells plate was taken at 570 nm with Lab systems Multiskan EX-Enzyme-linked immunosorbent assay (EX-ELISA) reader against a reagent blank. All data presented are mean±standard error of the mean (SEM).

HeLa cancer cell line = assay: MTT assay for anticancer activity, HeLa cells; conditions: read-out: IC50 against HeLa
Procedure: as §1, §2

HCT15 cancer cell line = assay: MTT assay for anticancer activity, HCT15 cells; conditions: read-out: IC50 against HCT15
Procedure: as §1, §2

[1] = A549 cells, MTT, 24 h incubation
[2] = HeLa cells, MTT, 24 h incubation
[3] = HCT15 cells, MTT, 24 h incubation

Row | Compound | IC50 (A549 cancer cell line; [1]) | IC50 (HeLa cancer cell line; [2]) | IC50 (HCT15 cancer cell line; [3]) | IC50 (A549 cancer cell line) | IC50 (HeLa cancer cell line) | IC50 (HCT15 cancer cell line)
1 | [Cl][Au].[Cl][Au].c1ccc(P(CP(c2ccccc2)c2ccccc2)c2ccccc2)cc1 [[(DPPM)(AuCl)2](A0), [μ-Bis(diphenylphosphino)methane]dichlorodigold(I)] | 137 µM | 108 µM | 148 µM | – | – | –
2 | N.N.[Cl][Pt][Cl] [cisplatin] | 41.6 µM | 19.4 µM | 29.5 µM | – | – | –
3 | tri-tert-butyl-phosphine gold(I) dibenzyldithiocarbamate [Complex (A1)] | – | – | – | 96.9 µM | 25.6 µM | 93.2 µM
